One data set deals with cytomegalovirus. Put plainly: in vitro antiviral evaluation, viral cytopathic effect (CPE) by microscopy after 72 hours. The format is cell-based. Conditions: TI column of Table 1 (equals CD50/ED50); 4320 min. The procedure: The compounds prepared in the previous Examples were evaluated in vitro as antiviral agents against cytomegalovirus, as follows.
The herpes virus strain employed was Strain McCrae of type 1 herpes (thymidine kinase positive virus) (HSV-1TK^+). This strain was prepared and titered in MA-104 cells and frozen at -90° C. until use. Also used were strain HF (HSV-1TK^-), strain E194 (HSV-2), NJB strain (MCMV), and strain AD169 (HCMV).
(§1) Continuous passaged MRC-5 cells obtained from the American Type Culture Collection (Bethesda, Md.) were used for testing of herpes-type virus, with growth medium consisting of Minimum Essential Medium (MEM) supplemented with 0.1% NaHCO3 and […] gentamicin.
(§2) To a 96 well microtiter plate containing an established 24 hour monolayer of cells from which the medium has been decanted was added 0.1 mL of varying (one-half log10) concentrations of test compound, which incubated on the cell 15 minutes, after which 0.1 mL of virus in a concentration of 320 cell culture 50% infectious doses (CCID50)/0.1 mL was added. The plate was covered with plastic wrap and incubated at 37° C. The cells were examined microscopically after 72 hours for evidence of cytotoxicity and for viral cytopathic effect (CPE).
In general terms: Cytopathic effects are the visible damage that an infection or toxin causes in cultured cells.

The next data set concerns MRC-5 cells. Put plainly: evidence of cytotoxicity by microscopy after 72 hours. The format is cell-based. The following applies: 37° C., microscopic cytotoxicity. Set-up: unit not given beside the values. The procedure: as §1, §2

The values that follow come from patent US5747511A, “Benzothiophene analogs as antiviral agents” (SRI International, priority 1995, dated 1998).

As for `Nc1cc2ccncc2c2sc3ccccc3c12` [Compound 1], the TI with cytomegalovirus is over 100. In addition, in the data set with MRC-5 cells, the CD50 was over 10.
